Data set [1] can be described thus: Solubility of PP-001 free acid in supernatant of 10 mg/mL formulation in FaSSIF. It counts as physicochemical. The conditions noted are these: supernatant of 10 mg/mL formulation at 25° C. in FaSSIF after 120 min.
A short description of data set [2]: in vivo. Conditions: rat, in vivo, po; for T1/2: pH 6.8. How it is done:
(§1) Suspensions were stirred continuously prior to dose.
A total of 27 male SD rats were used (n=3). 27 male SD rats assigned to the study were divided into 9 groups and a single type of formulated PP-001 salt was orally administered to each group of rats at dose level of 4 mg/kg (2 mL/kg dose volume). The diet was provided ad libitum throughout the in-life portion of the study, except for the fasting prior to dosing through 4 hours post dose. Drinking water was available daily ad libitum to all animals.
Plasma samples were collected via the jugular vein cannulation into EDTA-K3 tubes at 0.25, 0.5, 1, 2, 4, 8, and 24 hours post-dose administration. For analytical batch of single oral administration, plasma concentrations of salts of PP-001 were determined using LC-MS/MS with a lower limit of quantitation of 1 ng/mL.
(§2) The pharmacokinetic parameters of PP-001 salts were determined by non-compartmental analysis using WinNonlin Version 8.0 (Pharsight, Mountain View, CA). The area under the curve from the time of dosing to the last measurable concentration, AUC0-t, was calculated by the linear trapezoidal rule. The area under the concentration-time curve extrapolated to infinity, AUCinf, was calculated using a regression of the natural logarithm of the concentration values versus sampling time of the terminal slope (Lambda Z, k). This value is also used to calculate half-life (T1/2) as follows:
(§3) The bioavailability was calculated as follows:
(§4) [formula] • wherein PO is an oral administration and IV is an intravenous injection.

The nature of data set [3]: in vivo. The conditions noted are these: dog. As to the method: as §1
A total of 6 male beagle dogs were used (n=3). 6 male dogs assigned to the study were divided into 2 periods with 6 dogs per period and two dosing cycles separated by a 7-day washout period. The diet was provided ad libitum throughout the in-life portion of the study, except for the fasting prior to dosing through 4 hours post dose. Drinking water was available daily ad libitum to all animals. Formulated PP-001 salts were administered to male beagle dogs by oral administration at 4 mg/kg with dosed volume at 2 mL/kg.
Plasma samples were collected via the jugular vein cannulation into EDTA-K3 tubes at 0.25, 0.5, 1, 2, 4, 8, and 24 hours post-dose administration. For analytical batch of single oral administration, plasma concentrations of salts of PP-001 were determined using LC-MS/MS with a lower limit of quantitation of 10 ng/mL.
as §2, §3, §4

Data set [4] can be described thus: Thermodynamic (equilibrium) solubility of PP-001 salts in FaSSIF. It counts as physicochemical. The conditions noted are these: for Appearance after stirring for 24 hours / Thermodynamic solubility / Final pH: 3 mL FaSSIF, 37° C.; for Appearance after stirring for 24 hours: saturated; for Thermodynamic solubility: saturated (target 10 mg/mL), time point 2 hrs, pH 6.4 to 6.5; for Final pH: pH tested after 24 hours. As to the method: As the solid was completely dissolved, add more sample to keep it saturated. […] Then at the time point 2 hrs, 0.5 mL of sample solution was transferred into 1.5 mL centrifugation tube and centrifuged at 12,000 RPM for 10 min. The supernatant was diluted by 50% ACN suitable and analyzed by HPLC. The pH was tested after 24 hours.

Data set [5] is described as follows: Kinetic solubility of PP-001 salts in FaSSIF (HPLC). It counts as physicochemical. The conditions noted are these: 4 mL FaSSIF, 25° C., target 2 mg/mL. As to the method:
Approximately 8 mg (calculated as freebase) of each salt was weighed out into each glass vial and then 4 ml of FaSSIF was added (target concentration was 2 mg/mL). The sample was kept stirring on a magnetic stirrer at a speed of I 00 RPM under 25° C. Then at the time points of initial, 0.5 hr, 1 hr, 2 hrs and 24 hrs, 0.5 mL of sample solution was transferred into 1.5 mL centrifugation tube and centrifuged at 12,000 RPM for 10 min. The supernatant was diluted by 50% ACN suitable and analyzed by HPLC.
An HPLC method of testing solubility was performed as follows in Table A: […]

Values after ≈ are worked out from the molar mass of the structure shown. A value given as a limit tells only on which side of the number the result lay.

In data set [1], `O=C(Nc1c(F)c(F)c(-c2cccc(OC(F)(F)F)c2)c(F)c1F)c1ccsc1C(=O)O` [PP-001 free acid, 3-(2,3,5,6-tetrafluoro-3′-trifluoromethoxy-biphenyl-4-ylcarbamoyl)-thiophene-2-carboxylic acid] came in with a solubility at 120 min of 1200 µg/mL (≈ 2500 µM). For the same molecule, the “Increase in oral BA vs free acid in rats” value in data set [2] (male, SD) turned out to be 1. Further, the bioavailability in data set [2] (male, SD, 4 mg/kg) came out at 7.8%; in data set [3] (male, beagle, po, 4 mg/kg) it was 23%. The “Increase in oral BA vs free acid in dogs” value in data set [3] (male, beagle) worked out at 1.
Turning to `[K+]` [Potassium], in data set [2], the “Increase in oral BA vs free acid in rats” value was 0.7. Also, in data set [2] (4 mg/kg), the “AUC0-∞” value was 10112 ng·h/mL, the AUCExtr was determined as 0.525%, the AUCinf/D was 2528 kg·ng·h/mL/mg and the AUClast is 10049 ng·h/mL. Moreover, in data set [2] (4 mg/kg), the Cmax was 1144 ng/mL; the “F, bioavailability (BA) in rats” value stood at 5.8%; the “MRT0-∞” value came to 5.31 h; the Tmax came out at 4.00 h. The molecule further showed a T1/2 in data set [2] (4 mg/kg) of 2.96 h. In data set [3], the “Increase in oral BA vs free acid in dogs” value was 4.0. The “Increased bioavailability in dogs vs PP-001 free acid” value in data set [3] (po) is on record as above 400 % increase. Besides, in data set [3] (po, 4 mg/kg), the “AUC0-∞” value turned out to be 180263 ng·h/mL, the AUCExtr was 1.59%, the AUCinf/D was found to be 45066 kg·ng·h/mL/mg and the AUClast is 177228 ng·h/mL. In addition, in data set [3] (po, 4 mg/kg), the Cmax is listed as 33967 ng/mL, the “MRT0-∞” value came out at 4.34 h, the T1/2 was found to be 4.15 h and the Tmax stood at 1.17 h. In data set [4], the “Appearance after stirring for 24 hours” value is given as “Suspension” and the Thermodynamic solubility is 2340 µg/mL. Besides, the “Increased solubility vs PP-001 free acid” value in data set [4] (FaSSIF, comparison from Table 6) is given as above 100 % increase. Besides, in data set [5], the “Appearance after stirring for 24 hours” value is “clear solution”; the “Final pH” value is on record as 6.50; the “Solubility at different time points, 0.5 h” value amounted to 1700 µg/mL; the “Solubility at different time points, 1 h” value came to 2180 µg/mL. In data set [5], the “Solubility at different time points, 2 h” value amounted to 2190 µg/mL; the “Solubility at different time points, 24 h” value came out at 2260 µg/mL; the “Solubility at different time points, Initial” value was 490 µg/mL.
Regarding Sodium, in data set [2], the “Increase in oral BA vs free acid in rats” value amounted to 2.4. For the same molecule, in data set [2] (4 mg/kg), the “AUC0-∞” value turned out to be 32873 ng·h/mL, the AUCExtr is 0.743%, the AUCinf/D amounted to 8218 kg·ng·h/mL/mg and the AUClast was 32626 ng·h/mL. Besides, in data set [2] (4 mg/kg), the peak concentration (Cmax) was determined as 6147 ng/mL; the “F, bioavailability (BA) in rats” value is reported as 18.8%; the “MRT0-∞” value is 4.76 h; the Tmax was found to be 2.33 h. The same molecule registered a T1/2 in data set [2] (4 mg/kg) of 3.34 h. The “Increase in oral BA vs free acid in dogs” value in data set [3] was determined as 2.6. In data set [3] (po, 4 mg/kg), the “AUC0-∞” value worked out at 116660 ng·h/mL, the AUCExtr came to 2.16%, the AUCinf/D worked out at 29165 kg·ng·h/mL/mg and the AUClast turned out to be 114152 ng·h/mL. Besides, in data set [3] (po, 4 mg/kg), the Cmax was found to be 16867 ng/mL; the “F, bioavailability (BA) in dogs” value was found to be 59.6%; the “MRT0-∞” value turned out to be 5.28 h; the T1/2 is 4.24 h. Further, in data set [3] (po, 4 mg/kg), the Tmax amounted to 3.00 h. In data set [4], the “Final pH” value is reported as 6.49, the “Appearance after stirring for 24 hours” value is “Suspension” and the Thermodynamic solubility worked out at 1850 µg/mL. For the same molecule, in data set [5], the “Appearance after stirring for 24 hours” value was “clear solution”; the “Solubility at different time points, 0.5 h” value came out at 1600 µg/mL; the “Solubility at different time points, 1 h” value was 1730 µg/mL; the “Solubility at different time points, 2 h” value amounted to 1790 µg/mL. In data set [5], the “Solubility at different time points, 24 h” value came out at 2010 µg/mL and the “Solubility at different time points, Initial” value stood at 410 µg/mL.
As to Tromethamine, in data set [2], the “Increase in oral BA vs free acid in rats” value came to 1.6. In data set [2] (4 mg/kg), the “AUC0-∞” value came out at 21874 ng·h/mL, the AUCExtr worked out at 0.930%, the AUCinf/D is 5469 kg·ng·h/mL/mg and the AUClast was determined as 21665 ng·h/mL. Moreover, in data set [2] (4 mg/kg), the peak concentration (Cmax) was determined as 2787 ng/mL; the “F, bioavailability (BA) in rats” value came to 12.5%; the “MRT0-∞” value is 5.38 h; the time of peak concentration (Tmax) was 4.00 h. For the same molecule, the T1/2 in data set [2] (4 mg/kg) worked out at 3.39 h. Also, in data set [3], the “Increase in oral BA vs free acid in dogs” value was found to be 2.4. Moreover, in data set [3] (po, 4 mg/kg), the “AUC0-∞” value was 106528 ng·h/mL, the AUCExtr worked out at 2.03%, the AUCinf/D came to 26632 kg·ng·h/mL/mg and the AUClast was determined as 104381 ng·h/mL. Further, in data set [3] (po, 4 mg/kg), the Cmax is reported as 20467 ng/mL; the “F, bioavailability (BA) in dogs” value was 54.4%; the “MRT0-∞” value was found to be 5.38 h; the T1/2 is 4.13 h. In addition, the Tmax in data set [3] (po, 4 mg/kg) worked out at 2.67 h. In data set [4], the “Final pH” value was 6.44, the “Appearance after stirring for 24 hours” value was “Suspension” and the Thermodynamic solubility was found to be 3700 µg/mL. Besides, the Thermodynamic solubility in data set [4] (listed as Tromethamine cation) was 3700 µg/mL. Besides, in data set [5], the “Appearance after stirring for 24 hours” value is “clear solution”; the “Final pH” value is recorded as 6.51; the “Solubility at different time points, 0.5 h” value is 1990 µg/mL; the “Solubility at different time points, 1 h” value came out at 1950 µg/mL. Also, in data set [5], the “Solubility at different time points, 2 h” value was determined as 1960 µg/mL; the “Solubility at different time points, 24 h” value amounted to 2020 µg/mL; the “Solubility at different time points, Initial” value came to 1720 µg/mL.

What is called solubility is the dissolved amount per volume that the medium holds. The bioavailability is the share of a dose that reaches the circulation, judged against a reference dose that is usually intravenous. A lower bioavailability goes with poor availability. By Cmax is commonly meant the peak of the concentration-time curve. The term Tmax denotes the time from dosing to the highest level. The Solubility is the concentration that dissolves in the medium under given conditions.

(Values after patent publication US20260209200A1, “SALTS OF A DIHYDROOROTATE DEHYDROGENASE (DHOD) INHIBITOR” (priority 2022, published 2026).)
